This is an account of results in patent publication US5798382A, “2,3-dihydrobenzofuran derivatives, method for producing the same, and use thereof” (Asahi Kasei Kogyo Kabushiki Kaisha, priority 1994, dated 1998).

Assay [1] has as its target adrenaline α1 receptor. As to the kind of experiment: Affinity for adrenaline α1 receptor: inhibition of 3H-Prazosin binding to rat cerebral cortex membrane fraction. Also noted: species or system rat (male SD strain). The following applies: for Ki: 3H-Prazosin, rat cerebral cortex membrane, 25° C. 30 min, tested as hydrochloride salt. How it is done:
A male SD strain rat (7-week old; Charles River) was decapitated, and brain was taken out therefrom quickly. Cerebral cortex of the rat was separated and extracted at […] under ice cooling. The extracted cerebral cortex was frozen at -80° C. for 24 hours or longer. This frozen system was gradually thawed under ice cooling and then, 50 mM Tris-HCl buffer (pH 7.4) was added to the brain under ice cooling to obtain a suspension. The resultant suspension was homogenized, and then subjected to centrifugation at 48,000 g for 15 minutes, to thereby obtain a precipitate. The precipitate thus obtained was washed twice and resuspended in the same Tris-HCl buffer as used above. […] The total volume amount of the reaction mixture was 1 ml. The resultant reaction mixture was subjected to suction filtration using a Whatman GF/C filter, and the filter was washed three times in 50 mM Tris-HCl buffer (pH 7.4, 4 ml), transferred to a vial and then, the radioactivity of Prazosin absorbed on the filter was determined using a liquid scintillation counter. […] On the other hand, substantially the same procedure as mentioned above was repeated, except that 100 nM (final concentration) Prazosin was added to the ^3 H-Prazosin and ascorbic acid. The radioactivity of ^3 H-Prazosin adsorbed on the filter was determined in the same manner as mentioned above. […] Further, substantially the same procedure as mentioned above was repeated, except that, instead of Prazosin, a test compound was used in a predetermined concentration. The radioactivity of ^3 H-Prazosin adsorbed on the filter was determined in the same manner as mentioned above. […] The binding inhibition ratios were plotted, taking the logarithmic value of the concentration of the test compound as the abscissa value, and the binding inhibition ratio as the ordinate value. Then, a curve was drawn by the non-linear least square method.

In assay [2] the test system is Suncus murinus. The assay can be described thus: Activities against emesis: acceleration-stimulus induced emesis in suncus. The following applies: stimulus (4 cm, 1 Hz) 30 minutes after, 4 suncus, hydrochloride salt, physiological saline 0.55. The class given is in vivo. From the text:
The activities of individual compounds against emesis were examined using Suncus murinus. Suncus murinus is a small animal belonging to the Soricidae family. It has been known that suncus is likely to suffer from motion sickness and is susceptible to occurrence of emesis [see "Seitai-no-kagaku (Science of living body)", 42, 538 (1990)]. Suncus is likely to show symptoms like the symptoms of human motion sickness under the stimulus of simple acceleration, finally leading to the occurrence of emesis. It has been known that a drug, such as cisplatin, has an emesis-inducing activity.
In this test, test compounds were individually administered intraperitoneally to suncus. 30 minutes after the administration, acceleration-stimulus (amplitude: 4 cm; frequency; 1 Hz) was given to the suncus, and the suncus thus treated was observed as to whether emesis occurred or not.
Each of the compounds (1) used in the above tests was tested in the form of a hydrochloride salt thereof, and represented in Table 3 by the compound number used in Examples described below.

Each structure is given as a SMILES string.

For `O=C(NCCCCNCC1Cc2ccccc2O1)c1cccs1` (single isomer, unassigned; (-)) [Compound 111A, (-)-2-{N-[4-(2-thienylcarbonylamino)butyl]}aminomethyl-2,3-dihydrobenzo-[b]furan], the Ki (commonly a measure of affinity in units of concentration, obtained from inhibition or displacement) in assay [1] stood at 160 nM.

Take `CN(CCCCNC(=O)c1cccs1)CC1Cc2ccccc2O1` (single isomer, unassigned; (-)) [Compound 116A, (-)-2-{N-methyl-N-[4-(2-thienylcarbonylamino)butyl]}aminomethyl-2,3-dihydrobenzo[b]furan]: the Ki in assay [1] came to 530 nM.

With `CCN(CCCCNC(=O)c1cccs1)CC1Cc2ccccc2O1` (single isomer, unassigned; (-)) [Compound 117A, (-)-2-{N-ethyl-N-[4-(2-thienylcarbonylamino)butyl]}aminomethyl-2,3-dihydrobenzo[b]furan], in assay [1], the Ki is 580 nM.

On to `O=C(NCCCCNCC1Cc2ccccc2O1)c1cccc2ccccc12` (centres unmarked) [Compound 101B, 2-{N-[4-(1-naphthoylamino)butyl]}aminomethyl-2,3-dihydrobenzo[b]furan], for which the Ki in assay [1] worked out at 150 nM.

For the compound `O=C(NCCCCNCC1Cc2ccccc2O1)c1ccc2ccccc2c1` (centres unmarked) [Compound 102B, 2-{N-[4-(2-naphthoylamino)butyl]}aminomethyl-2,3-dihydrobenzo[b]furan], the Ki in assay [1] stood at 140 nM.

In the case of `O=C(NCCCCNCC1Cc2ccccc2O1)c1cccs1` (centres unmarked) [Compound 106B, 2-{N-[4-(2-thienylcarbonylamino)butyl]}aminomethyl-2,3-dihydrobenzo[b]furan], the “Time for occurrence of emesis” value in assay [2] (1 mg/kg intraperitoneally) came to 8.50 min. sec. Also, the Ki in assay [1] stood at 240 nM.

As to `O=C(NCCCCNCC1Cc2ccccc2O1)c1ccsc1` (centres unmarked) [Compound 107B, 2-{N-[4-(3-thienylcarbonylamino)butyl]}aminomethyl-2,3-dihydrobenzo[b]furan], the inhibitory constant (Ki) in assay [1] worked out at 230 nM.

Turning to `O=C(NCCCCNCC1Cc2ccccc2O1)c1ccco1` (centres unmarked) [Compound 108B, 2-{N-[4-(2-furylcarbonylamino)butyl]}aminomethyl-2,3-dihydrobenzo[b]furan], in assay [2] (1 mg/kg intraperitoneally), the “Time for occurrence of emesis” value came out at 4.56 min. sec.

Regarding `O=C(NCCNCC1Cc2ccccc2O1)c1cccc2ccccc12` (centres unmarked) [Compound 112B, 2-{N-[2-(1-naphthoylamino)ethyl]}aminomethyl-2,3-dihydrobenzo[b]furan], the “Time for occurrence of emesis” value in assay [2] (3 mg/kg intraperitoneally) amounted to 6.03 min. sec. Further, in assay [1], the Ki turned out to be 320 nM.

Turning to `O=C(NCCCNCC1Cc2ccccc2O1)c1cccc2ccccc12` (centres unmarked) [Compound 113B, 2-{N-[3-(1-naphthoylamino)propyl]}aminomethyl-2,3-dihydrobenzo[b]furan], in assay [2] (1 mg/kg intraperitoneally), the “Time for occurrence of emesis” value came to 7.44 min. sec. The Ki in assay [1] is 95 nM.

As for `O=S(=O)(NCCCCNCC1Cc2ccccc2O1)c1cccc2ccccc12` (centres unmarked) [Compound 114B, 2-{N-[4-(1-naphthylsulfonylamino)butyl]}aminomethyl-2,3-dihydrobenzo[b]furan], in assay [2] (1 mg/kg intraperitoneally), the “Time for occurrence of emesis” value is given as 3.50 min. sec. Moreover, in assay [1], the Ki was found to be 96 nM.

`O=S(=O)(NCCCCNCC1Cc2ccccc2O1)c1ccc2ccccc2c1` (centres unmarked) [Compound 115B, 2-{N-[4-(2-naphthylsulfonylamino)butyl]}aminomethyl-2,3-dihydrobenzo[b]furan]: the “Time for occurrence of emesis” value in assay [2] (1 mg/kg intraperitoneally) was 5.56 min. sec.

For `COc1cc2nc(N3CCN(C(=O)c4ccco4)CC3)nc(N)c2cc1OC` [^3 H-Prazosin, reference compound], the Kd (as a rule, the equilibrium constant for the complex coming apart) in assay [1] (radioactive ligand, used in Ki calculation) is 0.133 nM.
